Numbers after ± are expanded uncertainties.
What was measured:
[1] = Liquid; for mass density: 298.2 K, 101.33 kPa
[2] = refractive index (Na D-line) (dimensionless); conditions: 298.2 K; 101.33 kPa; Liquid; Standard Abbe refractometry

mass density [1] [kg/m3] | Normal boiling temperature ([1]; Fischer boiling point apparatus:FP) [°C] | SMILES | refractive index [2] | mass density ([1]; Vibrating tube method) [kg/m3] | Normal boiling temperature ([1]; Fischer boiling point apparatus) [°C]
1049.44 ± 3 | 118.1 ± 0.2 | CC(=O)O [acetic acid] | 1.3715 ± 0.0012 |  | 
 |  | CCCCOC(=O)c1ccccc1C(=O)OCCCC [dibutyl phthalate] | 1.4906 ± 0.0013 | 1050.13 ± 1.4 | 340.1 ± 0.2

Reference: the NIST ThermoML archive (doi:10.1016/j.jct.2005.03.003)
